{"source": "patent US12245597B2", "about": "(priority 2017, dated 2025)", "key": {"L. crescens": {"tested_on": "L. crescens", "type": "cell-based, Liberibacter crescens", "details": "control, at each tested level"}, "CLas [1]": {"tested_on": "CLas", "type": "in vivo, Candidatus Liberibacter asiaticus in citrus plants", "details": "forty-eight hours after treatment; soil drench"}, "CLas [2]": {"tested_on": "CLas", "type": "in vivo, Candidatus Liberibacter asiaticus in citrus plants", "details": "after twenty-eight days; soil drench, 10 Brix; p<0.05"}}, "data": [{"smiles": "CN(C)[C@@H]1C(=O)C(C(N)=O)=C(O)[C@@]2(O)C(=O)C3=C(O)c4c(O)cccc4[C@@](C)(O)[C@H]3[C@H](O)[C@@H]12", "note": "[Oxytetracyclin]", "values": [{"measurement": "inhibition", "setting": "L. crescens", "result": 100, "unit": "%"}]}, {"smiles": "[H]/N=C(/N)N[C@H]1[C@H](O)[C@@H](O)[C@H](O[C@@H]2O[C@@H](C)[C@](O)(C=O)[C@H]2O[C@@H]2O[C@@H](CO)[C@H](O)[C@@H](O)[C@@H]2NC)[C@@H](N/C(N)=N\\[H])[C@@H]1O", "note": "[Streptomycin]", "values": [{"measurement": "change in PMA titer (positive = reduction in live bacteria)", "setting": "CLas [1]", "result": "positive values"}, {"measurement": "number of copies of CLas genes, change from the initial value", "setting": "CLas [2]", "result": "significant reduction"}]}]}
